{
  "source": "ChEMBL document CHEMBL5107958",
  "about": "“Phosphoramidate Prodrugs Continue to Deliver, The Journey of Remdesivir (GS-5734) from RSV to SARS-CoV-2” (ACS Med Chem Lett, 2022)",
  "key": {"Ebolavirus": {"test_system": "Ebolavirus", "assay": "Potency index, ratio of EC50 of GS-441524 to EC50 of test compound for antiviral activity against Ebola infected in human HeLa cells assessed as reduction in viral replication", "type": "functional"}, "Marburgvirus": {"test_system": "Marburgvirus", "assay": "Potency index, ratio of EC50 of GS-441524 to EC50 of test compound for antiviral activity against MARV Rec. Bat371-GFP infected in human Huh-7 cells assessed as reduction in viral replication incubated for 48 to 144 hrs by fluorescence based assay", "type": "functional", "details": "time 48-144 hrs"}, "Measles morbillivirus [1]": {"test_system": "Measles morbillivirus", "assay": "Antiviral activity against Measles Rec.rMVEZGFP(3) infected in human HeLa cells assessed as reduction in viral replication incubated for 48 to 144 hrs by fluorescence based assay", "type": "functional, organism-based"}, "Measles morbillivirus [2]": {"test_system": "Measles morbillivirus", "assay": "Antiviral activity against Measles virus infected in HMVEC cells assessed as reduction in viral replication", "type": "functional, organism-based"}, "SARS-CoV": {"test_system": "SARS-CoV", "assay": "Antiviral activity against SARS-CoV infected in HAE cells assessed as reduction in viral replication at MOI of 0.5 preincubated for 3 hrs followed by virus removal measured after 48 hrs by Hoechst 33258 staining based assay", "type": "functional, organism-based", "details": "Severe acute respiratory syndrome-related coronavirus"}, "SARS-CoV-2 [3]": {"test_system": "SARS-CoV-2", "assay": "Antiviral activity against SARS-CoV-2 infected in human A549 cells expressing hACE2 assessed as reduction in viral replication at MOI of 0.025 incubated for 48 hrs by luciferase based assay", "type": "functional, organism-based", "details": "Severe acute respiratory syndrome coronavirus 2, A549, 48 h"}, "SARS-CoV-2 [4]": {"test_system": "SARS-CoV-2", "assay": "Antiviral activity against SARS-CoV-2 infected in human Calu-3 cells assessed as reduction in viral replication at MOI of 0.01 measured after 72 hrs by qRT-PCR analysis", "type": "functional, organism-based", "details": "Severe acute respiratory syndrome coronavirus 2, Calu-3, 72 h"}, "SARS-CoV-2 [5]": {"test_system": "SARS-CoV-2", "assay": "Potency index, ratio of EC50 of GS-441524 to EC50 of test compound for antiviral activity SARS-CoV-2 infected in human Calu-3 2B4 cells assessed as reduction in viral replication at MOI of 0.01 preincubated for 2 hrs followed by viral infection for 30 mins and subsequent virus removal and addition of medium containing compound measured after 72 hrs by RT-qPCR analysis", "type": "functional, Severe acute respiratory syndrome coronavirus 2", "details": "time 74.5 hrs"}, "[6]": {"test_system": "Middle East respiratory syndrome-related coronavirus", "assay": "Antiviral activity against MERS-CoV infected in HAE cells assessed as reduction in viral replication at MOI of 0.5 incubated for 3 hrs followed by virus removal measured after 48 hrs by Hoechst 33258 staining based assay", "type": "functional, organism-based"}, "[7]": {"assay": "Clearance in ferret at 10 mg/kg, iv", "type": "ADME, organism-based, Mustela putorius furo", "details": "in vivo"}, "[8]": {"assay": "AUC (0 to infinity) in ferret at 10 mg/kg, iv", "type": "ADME, organism-based, Mustela putorius furo", "design": "time infinity, dose 10 mg/kg, route iv", "details": "in vivo"}, "[9]": {"assay": "Prodrug conversion in ferret assessed as AUC (0 to last) of parent nucleoside compound at 10 mg/kg, iv", "type": "ADME, organism-based, Mustela putorius furo", "design": "time 0 - last, dose 10 mg/kg, route iv", "details": "in vivo"}, "[10]": {"assay": "Prodrug conversion in ferret lung assessed as triphosphate metabolite formation at 10 mg/kg, iv measured after 24 hrs", "type": "ADME, organism-based, Mustela putorius furo", "details": "in vivo"}, "[11]": {"assay": "Volume of distribution at steady state in human at 2.5 mg/kg, iv", "type": "ADME, organism-based", "details": "in vivo, read-out: Vdss"}, "[12]": {"assay": "AUC (0 to infinity) in human at 2.5 mg/kg, iv", "type": "ADME, organism-based", "design": "time infinity, dose 2.5 mg/kg, route iv", "details": "in vivo"}, "[13]": {"assay": "Stability of prodrug in mouse assessed as half life", "type": "ADME", "details": "in vivo"}, "Nipah virus": {"test_system": "Nipah virus", "assay": "Antiviral activity against Nipah virus infected in African green monkey assessed as animal survival at 10 mg/kg, iv qd relative to control", "type": "functional", "details": "Henipavirus nipahense"}},
  "data": [
    {"smiles": "CCC(CC)OC(=O)[C@H](C)N[P@](=O)(OC[C@H]1O[C@@](C#N)(c2ccc3c(N)ncnn23)[C@H](O)[C@@H]1O)Oc1ccccc1", "values": [
      {"measurement": "Ratio", "setting": "Ebolavirus", "value": ">143"},
      {"measurement": "Ratio", "setting": "Marburgvirus", "value": 136},
      {"measurement": "EC50", "setting": "Measles morbillivirus [1]", "value": 37, "unit": "nM"},
      {"measurement": "EC50", "setting": "Measles morbillivirus [2]", "value": 60, "unit": "nM"},
      {"measurement": "EC50", "setting": "SARS-CoV", "value": 69, "unit": "nM"},
      {"measurement": "EC50", "setting": "SARS-CoV-2 [3]", "value": 115, "unit": "nM"},
      {"measurement": "EC50", "setting": "SARS-CoV-2 [4]", "value": 110, "unit": "nM"},
      {"measurement": "Ratio", "setting": "SARS-CoV-2 [5]", "value": 2.2},
      {"measurement": "EC50", "setting": "[6]", "value": 74, "unit": "nM"},
      {"measurement": "clearance", "setting": "[7]", "value": 43.3, "unit": "mL/min/kg"},
      {"measurement": "AUC(0-inf)", "setting": "[8]", "value": 7, "unit": "µM·h"},
      {"measurement": "AUClast", "setting": "[9]", "value": 18.2, "unit": "µM·h"},
      {"measurement": "Drug metabolism", "setting": "[10]", "value": 1.28, "unit": "nmol/g"},
      {"measurement": "Vd", "setting": "[11]", "value": 1.22, "unit": "L/kg"},
      {"measurement": "AUC(0-inf)", "setting": "[12]", "value": 5, "unit": "µM·h"},
      {"measurement": "t1/2", "setting": "[13]", "value": 5, "unit": "min"},
      {"measurement": "survival at 10 mg/kg", "setting": "Nipah virus", "value": 100, "unit": "%"}
    ]}
  ]
}
